Measurements from PMC8388125, “Kinetic and Structural Characterization of the Self-Labeling Protein Tags HaloTag7, SNAP-tag, and CLIP-tag” (Biochemistry, 2021).
Numbering of substitutions follows the chain as printed.

How the values were obtained:
SNAP^C145A [1] = molecular target: T1, SNAP^C145A (Homo sapiens, UniProt P16455, A127T/A154D/C145A/C150Q/C62A/G131K/G132T/G153L/K125A/K32I/L33F/M134L/N157G/Q115S/Q116H/R128A/R135S/S151G/S152D/S159E); assay: Affinity of SNAP^C145A for nonfluorescent substrates via FP competition assay against CP-TMR; type: binding
T1 construct: made in house; host or cells: E. coli BL21(DE3)-pLysS
T1 sequence (P16455 1-182 K32I/L33F/C62A/Q115S/Q116H/K125A/A127T/R128A/G131K/G132T/M134L/R135S/C145A/C150Q/S151G/S152D/G153L/A154D/N157G/S159E limits assumed): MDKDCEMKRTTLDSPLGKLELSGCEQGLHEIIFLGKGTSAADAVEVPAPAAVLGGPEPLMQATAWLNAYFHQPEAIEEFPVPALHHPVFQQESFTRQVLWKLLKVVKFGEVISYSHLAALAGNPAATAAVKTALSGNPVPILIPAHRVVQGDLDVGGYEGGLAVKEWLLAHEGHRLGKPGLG
Protocol: Binding affinities of SNAP^C145A for BG, CP, BG-Ac, CP-Ac, and BC-Ac were obtained as previously described for HT7 by titrating 5 μM protein and 50 nM CP-TMR against nonfluorescent substrate concentrations ranging from 150 nM to 1.5 mM. Experimental conditions and data analysis were identical despite the fact that 1 mM DTT was added to the buffer and the assay was performed at room temperature.

SNAP-tag (SNAP) [2] = molecular target: T2, SNAP-tag (SNAP) (Homo sapiens, UniProt P16455, A127T/A154D/C150Q/C62A/G131K/G132T/G153L/K125A/K32I/L33F/M134L/N157G/Q115S/Q116H/R128A/R135S/S151G/S152D/S159E); assay: SNAP labeling kinetics via microplate reader (FP over time); type: biochemical; conditions: SNAP, plate reader, kinetic model 1
T2 construct: made in house; host or cells: E. coli BL21(DE3)-pLysS
T2 sequence (P16455 1-182 K32I/L33F/C62A/Q115S/Q116H/K125A/A127T/R128A/G131K/G132T/M134L/R135S/C150Q/S151G/S152D/G153L/A154D/N157G/S159E limits assumed): T1 sequence (P16455 1-182 K32I/L33F/C62A/Q115S/Q116H/K125A/A127T/R128A/G131K/G132T/M134L/R135S/C145A/C150Q/S151G/S152D/G153L/A154D/N157G/S159E limits assumed) with A145C
Protocol: (§1) Labeling kinetics of SNAP and CLIP substrates were measured by recording FP over time using a microplate reader in a manner analogous to that of HT7 labeling kinetics described above with the following changes. The fluorescent substrate concentration was fixed to 20 nM, and protein concentrations were varied from 15 to 900 nM. Measurements were performed in SNAP-FP buffer.
(§2) Kinetic data from microplate reader assays were fitted to a simplified kinetic model (eq 13) described by differential eqs 14–16 using DynaFit. The dead time of the measurements and baseline FP value were put in as fixed parameters. Standard deviations (normal distribution verified) and confidence intervals of fitted parameters were estimated with the Monte Carlo method with standard settings (N = 1000, 5% worst fits discarded). In the case of BG, CP, and BC kinetics, the substrate concentration was fitted by DynaFit to rule out quantification errors of the BG, CP, or BC fluorophores. Accurate fitting of the concentration was ensured by including conditions under which protein is limiting and no maximum FP value was reached.

[3] = molecular target: T3, hAGT (human O^6-alkylguanine-DNA alkyltransferase) (Homo sapiens, UniProt P16455); assay: hAGT labeling kinetics via microplate reader (FP over time); type: biochemical
T3 construct: StrepTag-II (N); enterokinase cleavage site (N); His10 (C); made in house; host or cells: E. coli BL21(DE3)-pLysS
T3 sequence (P16455 1-207): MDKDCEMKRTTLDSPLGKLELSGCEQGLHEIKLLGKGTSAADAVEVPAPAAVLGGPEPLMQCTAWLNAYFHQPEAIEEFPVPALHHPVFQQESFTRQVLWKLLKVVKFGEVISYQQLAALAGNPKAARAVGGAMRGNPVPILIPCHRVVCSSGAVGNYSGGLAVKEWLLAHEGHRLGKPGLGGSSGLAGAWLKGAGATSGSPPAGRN
Protocol: as §1, §2

CLIP-tag (CLIP) = molecular target: T4, CLIP-tag (CLIP) (Homo sapiens, UniProt P16455, A121V/A127T/A154D/C150Q/C62A/G131N/G132T/G153S/K125A/K32I/L33F/M134L/M60I/N157P/Q115S/Q116H/R128A/R135D/S151G/S152D/S159L/Y114E); assay: CLIP labeling kinetics via microplate reader (FP over time); type: biochemical; conditions: CLIP cross-reactivity
T4 construct: made in house; host or cells: E. coli BL21(DE3)-pLysS
T4 sequence (P16455 1-182 K32I/L33F/M60I/C62A/Y114E/Q115S/Q116H/A121V/K125A/A127T/R128A/G131N/G132T/M134L/R135D/C150Q/S151G/S152D/G153S/A154D/N157P/S159L limits assumed): T1 sequence (P16455 1-182 K32I/L33F/C62A/Q115S/Q116H/K125A/A127T/R128A/G131K/G132T/M134L/R135S/C145A/C150Q/S151G/S152D/G153L/A154D/N157G/S159E limits assumed) with M60I, Y114E, A121V, K131N, S135D, A145C, L153S, G157P, E159L
Protocol: as §1, §2

SNAP^C145A [4] = molecular target: T1, SNAP^C145A; assay: Affinity of SNAP^C145A for BG and CP fluorescent substrates by fluorescence polarization; type: binding
Protocol: Binding affinities of SNAP^C145A and SNAPf^C145A for BG-Alexa488, CP-Alexa488, BG-fluorescein, CP-fluorescein, BG-MAP555, BG-JF549, BG-TMR(6), BG-TMR(5), CP-TMR, BG-CPY(6), BG-CPY(5), CP-CPY, BG-SiR, CP-SiR, BG-JF646, BG-Atto565, BG-Atto590, BG-sulfo-Cy3, BG-Cy3, BG-sulfo-Cy5, and BG-Cy5 were determined by fluorescence polarization in a manner analogous to that for HT7 affinities for CA substrates described above with the following changes. Fluorescent substrates were titrated at a final concentration of 50 nM against protein concentrations ranging from 0 to 250 μM at room temperature using 0.1 g/L BSA and 1 mM DTT (SNAP-FP buffer). The FP value of each dye fully reacted with the native SNAP/SNAPf was used to improve fitting of the upper plateau of the curves by adding an extra data point at a protein concentration of 0.005 M.

SNAP-tag (SNAP) [5] = molecular target: T2, SNAP-tag (SNAP); assay: SNAP labeling kinetics via stopped flow (fluorescence anisotropy); type: biochemical; conditions: model 2
Protocol: Labeling kinetics of SNAP with BG-TMR were measured via stopped-flow in a manner analogous to that for HT7 kinetics described above; however, the final substrate concentration was fixed at 2 μM, and the protein concentration was varied from 1.875 to 50 μM. The activity buffer was supplemented with 1 mM DTT.
Kinetic stopped-flow data were preprocessed using a custom R script.[36],[37] Recorded pretrigger time points were removed, and time points were adjusted to start at time zero. Values from replicates were averaged. The anisotropy of the free dye was calculated by averaging anisotropy values of the baseline measurements. Preprocessed data were fitted to a kinetic model (eqs 5 and 6) described by differential eqs 7–10 using the DynaFit software.[38] The anisotropy of the free dye and the mixing delay of the stopped-flow machine were set as fixed offset and delay parameters in DynaFit. It was assumed that the protein substrate complex and the reacted product are contributing equally to the anisotropy signal. […] Standard deviations (normal distribution verified) and confidence intervals of fitted parameters were estimated with the Monte Carlo method[39] with standard settings (N = 1000, 5% worst fits discarded). In the case of SNAP kinetics with BG-TMR, the substrate concentration was fitted by DynaFit to rule out quantification errors of the BG-quenched fluorophore. Accurate fitting of the concentration was ensured by including conditions in which protein is limiting and no maximum FP value was reached.

Row | times lower affinity than for BG-Ac (SNAP^C145A [1]) [times] | Kd (SNAP^C145A [1]; FP competition against CP-TMR, room temperature) [µM] | kapp (value ± standard deviation) (SNAP-tag (SNAP) [2]) | times slower labeling of hAGT than of SNAP ([3]; hAGT vs SNAP) [times] | kapp (value ± standard deviation) ([3]; hAGT, plate reader, model 1) | times slower reaction of CLIP than with BC-TMR (CLIP-tag (CLIP)) [times] | fold lower Kd^C145A compared to Kd calculated from stopped-flow experiments using active SNAP (SNAP^C145A [4]; SNAP^C145A vs active SNAP) [fold] | Kd (SNAP^C145A [4]; SNAP^C145A, fluorescence polarization, room temperature) [µM] | k2 (± S.D.) (SNAP-tag (SNAP) [5]) | k-1 (± S.D.) (SNAP-tag (SNAP) [5]) | Structure (SMILES)
1 | 5 | 416 |  |  |  |  |  |  |  |  | CC(=O)NCc1ccc(COc2nccc(N)n2)cc1 [BC-Ac]
2 |  |  | (4.29 ± 0.01) × 10^5 M^–1 s^–1 | 130 | (3.38 ± 0.01) × 10^3 M^–1 s^–1 | 100 | 3 | 0.68 | 1.24 (± 0.02) s-1 | 1.02 (± 0.03) s-1 | CN(C)c1ccc2c(-c3cc(C(=O)NCc4ccc(COc5nc(N)nc6[nH]cnc56)cc4)ccc3C(=O)[O-])c3ccc(=[N+](C)C)cc-3oc2c1 [BG-TMR]
